pIC50: −log10 of the molar value.

In one test the test system is RBL-2H3 cells. The test can be described thus: Fluorescence-based assay of store-operated calcium entry in RBL-2H3 cells. Format: cell-based, rat. To be noted: Rattus norvegicus, thapsigargin, inhibition of Upslope of fluorescence after calcium addition, read-out: RBL-2H3 (IC50, μmol). Here is the method: (§1) Fluorescence-based assays are used for screening the compounds described herein, such as compounds of Formulas (I), (IA), (II), (IIA), (III), (IIIA), (IV), (IVA), (V), (VA), (VI), (VIA), (VII), (VIIA), (VIII), (VIIIA), (IX), (IXA), (X), (XI), (XIA), (XII), or (XIIA) which modulate intracellular calcium.
B. Fluorescence-Based Assay of Store-Operated Calcium Entry in RBL-2H3 Cells.
RBL-2H3 cells are obtained from ATCC and maintained in complete medium with 10% FBS at 37° C./6% CO2.
The day prior to performing the assay, RBL-2H3 cells are plated in 50 μL of complete medium in a 384 well plate. Cells are grown at 37° C./6% CO2 overnight and grow to 50-60% confluence by the next day. On the assay day, 1.5 µM Fluo-4-AM dye (Invitrogen) in complete medium is added and incubated for 1 hour at RT. Cells are washed twice in Ca^2+-free HBSS buffer and 35 μL Ca^2+-free HBSS buffer is added to each well. 10 μL of a test compound prepared in a Ca^2+-free HBSS solution at 4.5× of the desired concentration is added to a well and incubated for 5 minutes at RT. 10 μL of thapsigargin prepared in a Ca^2+-free HBSS solution at 5.5× of the desired concentration (5.5 uM) is added to each well and incubated for an additional 25 minutes. The initial baseline fluorescence signal is measured with a FLIPR^384 (Molecular Devices) plate reader. 5 μL of 12× calcium in HBSS (12 mM) is added and changes in cellular fluorescence are measured with the FLIPR^384 plate reader. In each well, the change in the fluorescent signal as a function of time due to calcium entry into the cell is determined by calculating the difference between the fluorescent signal measured 7 seconds after calcium addition and the initial baseline fluorescence signal at time zero (t=0). This parameter is designated Upslope. The IC50 value is calculated as the concentration at which 50% of the Upslope is inhibited.

Another test deals with T1, Orai1/STIM1 (Homo sapiens, UniProt Q96D31).
T1 construct: c-myc (C); expressed in transfected cells; host or cells: HEK-293 cells stably expressing recombinant human STIM1 and Orai1
The test can be described thus: Fluorescence-based assay of store-operated calcium entry in Orai1/STIM1 stable cells. It is filed as cell-based. Further details: key to Orai1/STIM1 (IC50, μmol): A, IC50 < 0.6 μM; B, IC50 = 0.6-1.2 μM; C, IC50 > 1.2 μM; — no fit. To be noted: HEK-293 cells stably expressing human STIM1 and Orai1, inhibition of Peak-Basal fluorescence signal after calcium addition; for pIC50: read-out: Orai1/STIM1 (IC50, μmol).
Text: as §1
A. Fluorescence-Based Assay of Store-Operated Calcium Entry in Orai1/STIM1 Stable Cells.
Cells stably expressing recombinant human STIM1 and Orai1 are generated by transfecting a human Orai1 expression plasmid (pcDNA3.1-Orai1-cmyc) into HEK-293 cells stably overexpressing human STIM1 (Roos et al. 2005 JCB 169(3): 435-445). Colonies of cells stably expressing both STIM1 and Orai1 proteins are selected and then subcloned by limiting dilution. Cells were cultured at 37° C./6% CO2 in complete medium with 10% FBS and appropriate selection markers.
The day prior to performing the assay Orai1/STIM1 stable cells are plated in 50 μL of complete medium at 90-95% confluence in a 384 well plate. Cells are grown at 37° C./6% CO2 overnight. On the day of the assay, 1.5 μM fluo-4-AM (Invitrogen) in complete medium is added to the cells, which are then incubated for 1 hour at RT. Cells are washed once in Ca^2+-free HBSS (Hank's buffered saline solution) and 35 μl of Ca^2+-free HBSS is added to each well. Test compounds are added to wells in a 10 μL Ca^2+-free HBSS solution, prepared at 4.5× the desired final concentration, and incubated for 30 minutes at RT. The initial baseline fluorescence signal is then measured with a FLIPR^384 (Molecular Devices) plate reader. Calcium entry is initiated by adding 5 μl of 10×CaCl2 (10 mM) in HBSS, and changes in cellular fluorescence are measured with the FLIPR^384 plate reader. In each well, the magnitude of the fluorescence signal as a result of calcium entry into the cell is determined by calculating the difference between the peak fluorescence signal measured after calcium addition and the initial baseline fluorescence signal (designated Peak-Basal). IC50 values are typically calculated as the concentration that inhibited 50% of the Peak-Basal signal.

T1 sequence (Q96D31 whole entry): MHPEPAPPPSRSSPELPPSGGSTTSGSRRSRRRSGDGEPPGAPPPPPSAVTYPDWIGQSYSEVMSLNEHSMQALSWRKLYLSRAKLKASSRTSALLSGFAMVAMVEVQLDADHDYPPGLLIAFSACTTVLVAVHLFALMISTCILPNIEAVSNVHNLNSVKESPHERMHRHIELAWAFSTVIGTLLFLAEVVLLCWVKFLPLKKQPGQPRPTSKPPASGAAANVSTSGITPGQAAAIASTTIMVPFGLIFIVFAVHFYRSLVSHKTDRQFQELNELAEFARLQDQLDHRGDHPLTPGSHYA

As for `Fc1cccc(F)c1CNc1ccc(-c2cc3c(cc2Cl)OC(F)(F)O3)cn1` [Compound 2, 5-(6-chloro-2,2-difluorobenzo[d][1,3]dioxol-5-yl)-N-(2,6-difluorobenzyl)pyridin-2-amine], the pIC50 in the test on RBL-2H3 cells was greater than 6.22; at Orai1/STIM1, 5.92 to 6.22. The corresponding values for `Cc1cc2c(cc1-c1ccc(NCc3c(F)cccc3F)nc1)OC(F)(F)O2` [Compound 4, 5-(2,2-difluoro-6-methylbenzo[d][1,3]dioxol-5-yl)-N-(2,6-difluorobenzyl)pyridin-2-amine] are greater than 6.22 and 5.92 to 6.22.

As to `Cc1cc2c(cc1-c1ccc(NCc3c(F)cccc3F)cn1)OC(F)(F)O2` [Compound 6, 6-(2,2-difluoro-6-methylbenzo[d][1,3]dioxol-5-yl)-N-(2,6-difluorobenzyl)pyridin-3-amine], the pIC50 in the test with RBL-2H3 cells and at Orai1/STIM1 was greater than 6.22 throughout. With `Fc1cccc(CNc2ccc(-c3cc4c(cc3Cl)OC(F)(F)O4)cn2)c1Cl` [Compound 8, 5-(6-chloro-2,2-difluorobenzo[d][1,3]dioxol-5-yl)-N-(2-chloro-3-fluorobenzyl)pyridin-2-amine], the pIC50 was greater than 6.22 in the test on RBL-2H3 cells and less than 5.92 at Orai1/STIM1. The corresponding values for `FC1(F)Oc2cc(Cl)c(-c3ccc(NCc4ccccc4Cl)nc3)cc2O1` [Compound 10, 5-(6-chloro-2,2-difluorobenzo[d][1,3]dioxol-5-yl)-N-(2-chlorobenzyl)pyridin-2-amine] are greater than 6.22 and less than 5.92. For `FC1(F)Oc2cc(Cl)c(-c3ccc(NCc4ccccc4C(F)(F)F)nc3)cc2O1` [Compound 12, 5-(6-chloro-2,2-difluorobenzo[d][1,3]dioxol-5-yl)-N-(2-(trifluoromethyl)benzyl)pyridin-2-amine], the pIC50 with RBL-2H3 cells is greater than 6.22. In addition, at Orai1/STIM1, the “Orai1/STIM1 (IC50, μmol)” value is “—”. Regarding `Fc1ccc(CNc2ccc(-c3cc4c(cc3Cl)OC(F)(F)O4)cn2)c(Cl)c1` [Compound 13], the pIC50 is greater than 6.22 with RBL-2H3 cells and less than 5.92 on Orai1/STIM1.

For `COc1ccc(F)cc1CNc1ccc(-c2cc3c(cc2Cl)OC(F)(F)O3)cn1` [Compound 14], the pIC50 with RBL-2H3 cells was greater than 6.22. The “Orai1/STIM1 (IC50, μmol)” value at Orai1/STIM1 is recorded as “—”. As for `COc1ccccc1CNc1ccc(-c2cc3c(cc2Cl)OC(F)(F)O3)cn1` [Compound 15], the pIC50 in the test with RBL-2H3 cells is greater than 6.22; at Orai1/STIM1 it was less than 5.92. The corresponding values for `Fc1cccc(CNc2ccc(-c3cc4c(cc3Cl)OC(F)(F)O4)cn2)c1` [Compound 16] are greater than 6.22 and 5.92 to 6.22. The like results for `Cc1cc2c(cc1-c1ccc(NCc3c(F)cccc3F)nc1)CCC2` [Compound 17] were, in that order, greater than 6.22 and 5.92 to 6.22. In the case of `Cc1ccc(F)cc1CNc1ccc(-c2cc3c(cc2C)CCC3)cn1` [Compound 18], in the test with RBL-2H3 cells, the pIC50 was greater than 6.22. The “Orai1/STIM1 (IC50, μmol)” value on Orai1/STIM1 is given as “—”.

With `Cc1ccccc1CNc1ccc(-c2cc3c(cc2C)OC(F)(F)O3)cn1` [Compound 19], the pIC50 in the test with RBL-2H3 cells and at Orai1/STIM1 was greater than 6.22 throughout. For the compound `Cc1cc2c(cc1-c1ccc(NCc3ccccc3Cl)nc1)OC(F)(F)O2` [Compound 20], the values for the pIC50 in the test on RBL-2H3 cells and at Orai1/STIM1 were greater than 6.22 and less than 5.92, respectively. The corresponding values for `Cc1cc2c(cc1-c1ccc(NCc3ccccc3F)nc1)OC(F)(F)O2` [Compound 21] are greater than 6.22 and greater than 6.22. The like results for `Cc1cc2c(cc1-c1ccc(NCc3c(F)cccc3Cl)nc1)OC(F)(F)O2` [Compound 22] were, in that order, greater than 6.22 and less than 5.92.

Take `Cc1cc2c(cc1-c1ccc(NCc3c(F)cc(F)cc3F)nc1)OC(F)(F)O2` [Compound 24]: the pIC50 in the test on RBL-2H3 cells was greater than 6.22. Same read-out and setting: the value for `Cc1cc2c(cc1-c1ccc(NCc3c(F)ccc(F)c3F)nc1)OC(F)(F)O2` [Compound 25] was greater than 6.22; that for `Cc1sc(C(F)(F)F)nc1-c1ccc(NCc2ccccc2F)nc1` [Compound 26] was greater than 6.22; that for `Cc1sc(C(F)(F)F)nc1-c1ccc(NCc2c(F)cc(F)cc2F)nc1` [Compound 27] was greater than 6.22. Still for that read-out and setting: the value for `Cc1cc2c(cc1-c1cnc(NCc3c(F)cccc3F)nc1)OC(F)(F)O2` [Compound 32, 5-(2,2-difluoro-6-methyl-1,3-benzodioxol-5-yl)-N-[(2,6-difluorophenyl)methyl]pyrimidin-2-amine] was greater than 6.22.

`Fc1cccc(F)c1CNc1ccc(-c2nc3c(cc2Cl)OCCO3)cn1` [Compound 45, 5-(7-chloro-2,3-dihydro-[1,4]dioxino[2,3-b]pyridin-6-yl)-N-(2,6-difluorobenzyl)pyridin-2-amine]: the pIC50 with RBL-2H3 cells is greater than 6.22.

Turning to `Cc1cc2c(cc1-c1cnc(OCc3c(F)cccc3F)nc1)OC(F)(F)O2` [Compound 62], the pIC50 in the test on RBL-2H3 cells is 5.92 to 6.22. Same read-out and setting: the value for `Cn1nc(C(F)(F)F)cc1-c1cnc(OCc2c(F)cccc2F)nc1` [Compound 63] was less than 5.92; that for `Cc1cc2c(cc1-c1ccc(OCc3c(F)cccc3F)nc1)OC(F)(F)O2` [Compound 66] was greater than 6.22. The same measure, in the same setting: the value for `Cn1nc(C(F)(F)F)cc1-c1ccc(OCc2c(F)cccc2F)nc1` [Compound 67] was 5.92 to 6.22; that for `Cn1nc(C(F)(F)F)cc1-c1ccc(NCc2c(F)cc(F)cc2F)cn1` [Compound 87] was greater than 6.22. Still for that read-out and setting: next, `CCn1nc(C(F)(F)F)cc1-c1ccc(NCc2ccccc2F)cn1` [Compound 88]: greater than 6.22; `CCn1nc(C(F)(F)F)cc1-c1ccc(NCc2c(F)cccc2F)cn1` [Compound 89]: greater than 6.22; `Cn1nc(C(F)(F)F)cc1-c1ncc(NCc2c(F)cccc2F)cc1F` [Compound 91]: greater than 6.22.

In the case of `Cn1nc(C(F)(F)F)cc1-c1cnc(NCc2c(F)cccc2F)nc1` [Compound 94, N-(2,6-difluorobenzyl)-5-(1-methyl-3-(trifluoromethyl)-1H-pyrazol-5-yl)pyrimidin-2-amine], the pIC50 with RBL-2H3 cells is greater than 6.22.

For `Fc1ccc(C(F)(F)F)c(Oc2ccc(NCc3c(F)cccc3F)nc2)c1` [Compound 133, N-(2,6-difluorobenzyl)-5-(5-fluoro-2-(trifluoromethyl)phenoxy)pyridin-2-amine], the pIC50 in the test on RBL-2H3 cells was greater than 6.22. The same measure, in the same setting: the value for `CCc1ccccc1Oc1ccc(NCc2c(F)cc(F)cc2F)nc1` [Compound 136] was less than 5.92; that for `CCc1ccccc1Oc1ccc(NCc2c(F)cccc2F)nc1` [Compound 137] was less than 5.92.

Turning to `Fc1cc(F)c(CNc2ccc(Oc3cc(F)ccc3C(F)(F)F)cn2)c(F)c1` [Compound 138], the pIC50 with RBL-2H3 cells is greater than 6.22. On the same count and under the same terms, the value for `Fc1ccc(C(F)(F)F)c(Oc2ccc(NCc3c(F)cncc3F)nc2)c1` [Compound 139] was greater than 6.22; that for `Fc1cc(F)c(CNc2ccc(Oc3cc(C(F)(F)F)ccc3C(F)(F)F)cn2)c(F)c1` [Compound 140] was 5.92 to 6.22; that for `Fc1cccc(F)c1CNc1ccc(Oc2cc(C(F)(F)F)ccc2C(F)(F)F)cn1` [Compound 141] was greater than 6.22.

The values above are taken from patent US10106529B2, “Compounds that modulate intracellular calcium” (CalciMedica, Inc., priority 2011, dated 2018).
